{TEG-Chol} = cholesteryl attached through a triethylene glycol (TEG) linker
Key:
[1] = tested on: MDA-MB-231 (MDA-231) cells; experiment: Treatment of pre-formed 3-dimensional MDA-231 structures on MATRIGEL; type: cell-based, human; conditions: MDA-231, 53 μM, repeated every 3-4 days up to 17-21 days, FIG. 4
Method: The MDA-MB-231 (MDA-231) cells were cultured in regular culture medium, trypsinized and counted. 100×10^3 of MDA-231 cells were plated in regular culture medium (RCM), in wells of 24-well plates coated with 350 μl of MATRIGEL®. After the formation of 3-dimensional structures during 48 hrs without any treatment, the medium was changed, and structures were exposed to a final concentration of 53 μM of SEQ ID NO:3, 53 μM of SEQ ID NO:7, 53 μM of cholesteryl-TEG phosphoramidite, RCM, or their respective control media (RCM with water, RCM with DMSO or RCM with acetonitrile). The treatments were repeated every 3-4 days until a maximum time in culture of 17-21 days. The experiment was repeated three times. Digital photographs of the cells in the 24-well plates were taken using a Nikon Coolpix 990 digital camera connected to a Nikon inverted microscope model TMS.

MCF-7 cells = experiment: Treatment of pre-formed 3-dimensional MCF-7 structures on MATRIGEL; type: cell-based, human; conditions: MCF-7, 53 μM, repeated every 3-4 days up to 19-20 days, FIG. 3
Method: MCF-7 cells were cultured in regular culture medium (RCM), trypsinized and counted. 150×10^3 of MCF-7 cells, in wells of 24-well plates coated with 350 μl of MATRIGEL®. After the formation of 3-dimensional structures during 48 hrs without any treatment, the medium was changed and the structures were exposed to a final concentration of 53 μM of SEQ ID NO:3, 53 μM of SEQ ID NO:7, 53 μM of cholesteryl-TEG phosphoramidite, RCM or their respective control media (RCM with water, RCM with DMSO, or RCM with acetonitrile). The treatments were repeated every 3-4 days until a maximum time in culture of 19-20 days. The experiment was repeated three times. Digital photographs of the cells in the 24-well plates were taken using a Nikon Coolpix 990 digital camera connected to a Nikon inverted microscope model TMS.

[2] = tested on: MDA-MB-231 (MDA-231) cells; experiment: Cellular proliferation of MDA-231 cells (Trypan blue exclusion count); type: cell-based, human; conditions: MDA-231, 53 μM; for Effect on cellular proliferation (in words): 72 hrs; for Percentage of changes in cellular proliferation compared to controls (mean ± s.d.): cultured for 3 days, + stimulation, − inhibition, three independent assays
Method: (§1) Either 20×10^3 MDA-MB-231 (MDA-231) or Hs578T cells were plated into individual wells of 24-well plates in regular culture medium (RCM) presence or absence (control) of 53 μM (final concentration) of SEQ ID NO:3, SEQ ID NO:7, 53 μM cholesteryl-TEG phosphoramidite, or corresponding control media (regular culture medium (RCM) for SEQ ID NO:3, RCM with the same amount of water as the amount added with the SEQ ID NO:7, and RCM with the same amount of acetonitrile as the amount added with cholesteryl-TEG phosphoramidite). Cells were cultured for 72 hrs, removed with trypsin and counted with an hemocytometer using the Trypan blue exclusion technique. Results of three independent assays (mean and standard deviation (s.d.) of percentage of changes compared to controls) are shown in Table 9.

Hs578T cells = experiment: Cellular proliferation of Hs578T cells (Trypan blue exclusion count); type: cell-based, human; conditions: 53 μM; for Effect on cellular proliferation (in words): 72 hrs; for Percentage of changes in cellular proliferation compared to controls (mean ± s.d.): cultured for 3 days, + stimulation, − inhibition, three independent assays
Method: as §1

EL-4 cells [3] = experiment: Cleavage of poly(ADP-ribose) polymerase in EL-4 cells (FITC-antibody flow cytometry); type: cell-based, murine; conditions: 53 μM, 72 h; for Percentage of cells containing cleaved PARP: EL-4 cells, untreated 1
Method: EL-4 cells (2.5×10^5 cells/ml) were incubated for 72 h with 0 μM (control), 53 μM of SEQ ID NO:3 or 53 μM of SEQ ID NO:7. After incubation, both control and treated cells were washed, fixed, permeabilized and incubated with an FITC-conjugated antibody that recognizes specifically the 85 kDa fragments of cleaved PARP (BioSource, Camarillo, Calif., USA) using the conditions recommended by the manufacturer. Fluorescence associated with cleaved PARP was analyzed by flow cytometry on a FACSCalibur using the program CellQUEST (both from Becton Dickinson). The percentage of cells containing cleaved PARP in EL-4 cells treated with 53 μM final concentration of sequences is shown in Table 5.

EL-4 cells [4] = experiment: Apoptosis by phosphatidylserine redistribution (annexin V flow cytometry) in EL-4 cells; type: cell-based, murine; conditions: 24 hours; for Percentage of positive cells for phosphatidylserine (cells in apoptosis) in EL-4 cells: untreated cells 7%; for Induction of apoptosis in EL-4 cells (in words): translocation of phosphatidylserine, up to 53.0 μM
Method: Redistribution of plasma membrane phosphatidylserine is a characteristic of cells undergoing apoptosis (Martin et al., J. Exp. Med., 182:1545, 1995). The redistribution of phosphatidylserine in the plasma membrane during apoptosis was measured by flow cytometry using FITC (fluorescein isothiocyanate)-conjugated annexin V (BD Pharmingen, San Diego, Calif.). MEG-01 cells, a human chronic myelogeneous leukemia cell line positive for the Philadelphia chromosome and having a BCR-ABL gene fusion, were incubated at 2.5×10^5 cells/ml for 48 hours with 5.3, 26.5 and 53.0 μM final concentrations of SEQ ID NO:1, SEQ ID NO:2, SEQ ID NO:5, SEQ ID NO:6 and cholesteryl-TEG phosphoramidite molecule. The percentage of cells in apoptosis after exposure to the SEQ ID NOs:1, 2, 5, 6, or cholesteryl-TEG phosphoramidite treatment is reported in Table 2. The percentage of apoptosis in untreated MEG-01 cells was 12%.
EL-4 cells, a murine T lymphoma cell line, were incubated at 2.5×10^5 cells/ml for 24 hours with 0.53, 5.3 and 53.0 μM concentrations of SEQ ID NO:3, SEQ ID NO:7 or cholesteryl-TEG phosphoramidite. The percentage of cells in apoptosis after exposure to SEQ ID NO:3, SEQ ID NO:7 or cholesteryl-TEG phosphoramidite treatment is reported in Table 3. The percentage of apoptosis in untreated EL-4 cells was 7%.

Substance | Effect on pre-formed 3-dimensional structures on MATRIGEL [1] | Effect on pre-formed 3-dimensional structures on MATRIGEL (MCF-7 cells) | Effect on cellular proliferation (in words) [2] | Percentage of changes in cellular proliferation compared to controls (mean ± s.d.) [2] | Effect on cellular proliferation (in words) (Hs578T cells) | Percentage of changes in cellular proliferation compared to controls (mean ± s.d.) (Hs578T cells) [%] | Cleavage of PARP in EL-4 cells (in words) (EL-4 cells [3]) | Percentage of cells containing cleaved PARP (EL-4 cells [3]) [%] | Percentage of positive cells for phosphatidylserine (cells in apoptosis) in EL-4 cells (EL-4 cells [4]; 0.53 μM) [%] | Percentage of positive cells for phosphatidylserine (cells in apoptosis) in EL-4 cells (EL-4 cells [4]; 5.3 μM) [%] | Percentage of positive cells for phosphatidylserine (cells in apoptosis) in EL-4 cells (EL-4 cells [4]; 53.0 μM) [%] | Induction of apoptosis in EL-4 cells (in words) (EL-4 cells [4])
5′ OH-CCACCC-OH 3′ (listed as DNA, chemistry not fully specified) [SEQ ID NO:3] | did not affect the 3-dimensional structures | did not affect the 3-dimensional structures | did not significantly affect cellular proliferation | +6.9 ± 5% | did not significantly affect cellular proliferation | −6.5 ± 5 | inactive | 1 | 7 | 7 | 7 | neither SEQ ID NO:3 nor cholesteryl-TEG phosphoramidite caused apoptosis
5′ OH-CCACCC(TEG-cholesteryl) 3′ (3' {TEG-Chol}, sugars by position and backbone not given here) [SEQ ID NO:7] | disrupted the growth pattern of the structures | disrupted the growth pattern of the structures | capacity to inhibit cellular proliferation | −97.9 ± 2.5% | capacity to inhibit cellular proliferation | −91.8 ± 10.5 | capacity to induce apoptosis as measured by cleavage of PARP | 84 | 8 | 11 | 49 | capacity to induce apoptosis
